Experimental data reported in patent publication US5506262A, “Cholesterol lowering compounds” (Merck & Co., Inc., priority 1993, dated 1996).
≈ marks a conversion by molar mass, not a printed value.

Assays:
[1] = biological target: T1, Farnesyl-protein transferase (Ftase) (Bos taurus, UniProt P29702+P49355); test: RASIT ASSAY II: inhibition of Ras farnesylation in vitro; assay type: biochemical, bovine; conditions: Ras-CVLS 1.0 μM, 0.5 μM [3H]FPP
T1 construct: Farnesyl-protein transferase (Ftase) from bovine brain was chromatographed on DEAE-Sephacel; from tissue; host or cells: bovine brain, partially purified (DEAE-Sephacel, N-octyl agarose, mono Q)
Method: (§1) The intrinsic farnesyl-protein transferase (FTase) activity of representative compounds of this invention was measured by the assays described below:
(§2) Farnesyl-protein transferase (Ftase) from bovine brain was chromatographed on DEAE-Sephacel (Pharmacia, 0-0.8M NaCl gradient elution), N-octyl agarose (Sigma, 0-0.6M Nacl gradient elution), and a mono Q HPLC column (Pharmacia, 0-0.3M NaCl gradient). Ras-CVLS at 1.0 μM, 0.5 μM [^3 H]FPP, and the indicated compounds were incubated with this partially purified enzyme preparation. The Ftase data presented below is a measurement of the ability of the test compound to inhibit Ras farnesylation in vitro.
(§3) Table 8 lists IC50 data which is representative of the intrinsic Ras inhibitory activity of the compounds of this invention. Data of representative compounds from each embodiment and class of the invention is provided. When an inhibitory value is not provided for a given assay, the compound was not tested in that protocol.

[2] = biological target: T1, Farnesyl-protein transferase (Ftase); test: RASIT ASSAY I: inhibition of Ras farnesylation in vitro; assay type: biochemical, bovine; conditions: Ras-CVLS 3.5 μM, 0.25 μM [3H]FPP
Method: as §1
as §2, with “3.5” for “1.0”, “0.25” for “0.5”
as §3

C. parapsilosis MY1010 = test: Antifungal MIC, microtiter dilution assay; assay type: cell-based; conditions: Lodderomyces parapsilosis, 24 to 48 hours, 35° C., read-out: Minimum Inhibitory Concentration
Method: (§4) The compounds are particularly active towards filamentous fungi and yeasts including Candida albicans and Cryptococcus neoformans. The sensitivity of filamentous fungi and yeast was determined using inhibitor dilution assays in microtiter format. The compounds were dissolved in DMSO at 2 mg/ml and serially diluted in 0.1M phosphate buffer, pH 7.0 in the microtiter dish from 100 to 0.006 μg/ml. A standardized spore suspension for testing the filamentous fungi was prepared by inoculating Antibiotic Medium #3 containing 1.5% agar with spores such that 1.5×10^3 colony forming units were added per well. The microtiter wells were filled with 50 μl of buffer containing compound and 50 μl of inoculated medium.
(§5) The sensitivity of yeasts was determined by inoculating yeast nitrogen base containing 1% dextrose (YNB/G) with aliquots of an overnight yeast culture grown in Yeast Morphology (YM) media at 35° C. and diluting in YNB/G to yield a final concentration of 1.5-7.5×10^3 colony forming units/well. To test the sensitivity of yeast, compound was solubilized in 10 percent aqueous DMSO at 2.56 mg/ml. The compound was diluted serially in YNB/G from 128 to 0.06 μg/ml and further diluted 1:10 in YNB/G. The wells were filled with 150 μl of media containing drug. […] Representative of the antifungal activity are the minimum inhibitory concentration data shown below for representative compounds from the various embodiments and classes described hereinabove.

Crypt. neoformans MY1051 = test: Antifungal MIC, microtiter dilution assay; assay type: cell-based; conditions: Cryptococcus neoformans, 24 to 48 hours, 35° C., read-out: Minimum Inhibitory Concentration
Method: as §4, §5

Aspergillus flavus MF383 = test: Antifungal MIC, microtiter dilution assay; assay type: cell-based; conditions: 42 hours, 28° C., read-out: Minimum Inhibitory Concentration
Method: as §4, §5

C. tropicalis MY1012 = test: Antifungal MIC, microtiter dilution assay; assay type: cell-based; conditions: Candida tropicalis, 24 to 48 hours, 35° C., read-out: Minimum Inhibitory Concentration
Method: as §4, §5

Candida albicans MY1055 = test: Antifungal MIC, microtiter dilution assay; assay type: cell-based; conditions: 24 to 48 hours, 35° C., read-out: Minimum Inhibitory Concentration
Method: as §4, §5

In the case of `C=C(CC[C@]12O[C@H](C(=O)O)[C@@](O)(C(=O)O)[C@](C(=O)O)(O1)[C@H](OC(=O)OCCCCCCCCCCCOc1ccccc1)[C@H]2O)[C@@H](OC(C)=O)[C@H](C)Cc1ccccc1` [Compound 5y], the IC50 [1] is reported as 27 nM and the IC50 [2] is reported as 500 nM.
With `C=C(CC[C@]12O[C@H](C(=O)O)[C@@](O)(C(=O)O)[C@](C(=O)O)(O1)[C@H](OC(=O)/C=C/[C@@H](C)C[C@@H](C)CC)[C@H]2O)[C@@H](OC(=O)CCC)[C@H](C)Cc1ccccc1` [Compound 7b, IA-Cl(4')-Butanoyl tri-acid] the MIC (C. parapsilosis MY1010) was 2 µg/mL (≈ 2.78 µM), the MIC (Crypt. neoformans MY1051) was 0.5 µg/mL (≈ 0.696 µM) and the MIC (Aspergillus flavus MF383) was 2 µg/mL (≈ 2.78 µM). The MIC (C. tropicalis MY1012) was 2 µg/mL (≈ 2.78 µM) and the MIC (Candida albicans MY1055) was 2 µg/mL (≈ 2.78 µM).
For `CC[C@H](C)C[C@H](C)/C=C/C(=O)O[C@@H]1[C@@H](O)[C@@]2(CCCOC(=O)CCCc3ccccc3)O[C@H](C(=O)O)[C@@](O)(C(=O)O)[C@]1(C(=O)O)O2` [Compound 39e, 39-4-phenylbutyrate ester], the IC50 [1] was 19 nM and the IC50 [2] was 120 nM.
For `C=C(CC[C@]12O[C@H](C(=O)O)[C@@](O)(C(=O)O)[C@](C(=O)O)(O1)[C@H](OC(=O)NCCCCCCCCCCCOc1ccccc1)[C@H]2O)[C@@H](OC(C)=O)[C@H](C)Cc1ccccc1` [Compound 5u], the IC50 [1] was 27 nM and the IC50 [2] was 500 nM.
`C=C(CC[C@]12O[C@H](C(=O)O)[C@@](O)(C(=O)O)[C@](C(=O)O)(O1)[C@H](OC(=O)/C=C/[C@@H](C)C[C@@H](C)CC)[C@H]2OC)[C@@H](OC(C)=O)[C@H](C)Cc1ccccc1` [5n'] showed an IC50 [2] of 4000 nM, an MIC (C. parapsilosis MY1010) of 16 µg/mL (≈ 22.7 µM) and an MIC (Crypt. neoformans MY1051) of 1 µg/mL (≈ 1.42 µM). For the same compound, the MIC (Aspergillus flavus MF383) was 4 µg/mL (≈ 5.68 µM), the MIC (C. tropicalis MY1012) was 1 µg/mL (≈ 1.42 µM) and the MIC (Candida albicans MY1055) was 4 µg/mL (≈ 5.68 µM).
For `C=C(CC[C@]12O[C@H](C(=O)O)[C@@](O)(C(=O)O)[C@](C(=O)O)(O1)[C@H](OC(=O)/C=C/[C@@H](C)C[C@@H](C)CC)[C@H]2O)[C@@H](OC(=O)c1ccccc1)[C@H](C)Cc1ccccc1` [Compound 7d], the IC50 [1] was 52 nM and the IC50 [2] was 1700 nM.
In the case of `C=C(CC[C@]12O[C@H](C(=O)O)[C@@](O)(C(=O)O)[C@](C(=O)O)(O1)[C@H](OCCCCCCCCCCOc1ccc(OC)c(OC)c1)[C@H]2O)[C@@H](OC(C)=O)[C@H](C)Cc1ccccc1` [5q"'], the MIC (C. parapsilosis MY1010) is reported as 1 µg/mL (≈ 1.2 µM), the MIC (Crypt. neoformans MY1051) is reported as 0.25 µg/mL (≈ 0.301 µM) and the MIC (Aspergillus flavus MF383) is reported as 1 µg/mL (≈ 1.2 µM). The MIC (C. tropicalis MY1012) was 128 µg/mL (≈ 154 µM) and the MIC (Candida albicans MY1055) was 8 µg/mL (≈ 9.63 µM).
Work on `C=C(CC[C@]12O[C@H](C(=O)O)[C@@](O)(C(=O)O)[C@](C(=O)O)(O1)[C@H](OC(=O)NCc1ccccc1)[C@H]2O)[C@@H](OC(C)=O)[C@H](C)Cc1ccccc1` [Compound 5s] yielded an MIC (C. parapsilosis MY1010) of over 128 µg/mL, an MIC (Crypt. neoformans MY1051) of 32 µg/mL (≈ 47.6 µM) and an MIC (C. tropicalis MY1012) of over 128 µg/mL. The MIC (Candida albicans MY1055) was 1 µg/mL (≈ 1.49 µM).
With `CC[C@H](C)C[C@H](C)CCC(=O)O[C@@H]1[C@@H](O)[C@@]2(CCC(C)[C@@H](OC(C)=O)[C@H](C)Cc3ccccc3)O[C@H](C(=O)O)[C@@](O)(C(=O)O)[C@]1(C(=O)O)O2` (stereo partly drawn) [Compound 24b, (1S,3S,4S,5R,6R,7R)-1-[(4S)-acetoxy-3,5(R)-dimethyl-6-phenyl]hexyl-4,6,7-trihydroxy-6-O-(4(S),6(S)-dimethyl-2-octanoyl)-2,8-dioxabicyclo-[3,2,1]octane-3,4,5-tricarboxylic acid] the IC50 [2] was 1300 nM.
`C=C(CC[C@]12O[C@H](C(N)=O)[C@@](O)(C(=O)O)[C@](C(=O)O)(O1)[C@H](OC(=O)/C=C/[C@@H](C)C[C@@H](C)CC)[C@H]2O)[C@@H](OC(C)=O)[C@H](C)Cc1ccccc1` [Compound 12a, IA-3-carboxamide] gave an MIC (C. parapsilosis MY1010) of 8 µg/mL (≈ 11.6 µM), an MIC (Crypt. neoformans MY1051) of 1 µg/mL (≈ 1.45 µM) and an MIC (Aspergillus flavus MF383) of 2 µg/mL (≈ 2.9 µM). It also gave an MIC (C. tropicalis MY1012) of 2 µg/mL (≈ 2.9 µM) and an MIC (Candida albicans MY1055) of 8 µg/mL (≈ 11.6 µM).
With `C=C(CC[C@]12O[C@H](C(=O)Nc3ccncn3)[C@@](O)(C(=O)O)[C@](C(=O)O)(O1)[C@H](OC(=O)/C=C/[C@@H](C)C[C@@H](C)CC)[C@H]2O)[C@@H](OC(C)=O)[C@H](C)Cc1ccccc1` [Compound 12n, IA-3-(4-amidopyrimidine)] the MIC (C. parapsilosis MY1010) was 32 µg/mL (≈ 41.7 µM), the MIC (Crypt. neoformans MY1051) was 0.25 µg/mL (≈ 0.326 µM) and the MIC (Aspergillus flavus MF383) was 2 µg/mL (≈ 2.6 µM). The MIC (C. tropicalis MY1012) was 8 µg/mL (≈ 10.4 µM) and the MIC (Candida albicans MY1055) was 16 µg/mL (≈ 20.8 µM).
`C=C(CC[C@]12O[C@H](C(=O)O)[C@@](O)(C(=O)O)[C@](C(=O)O)(O1)[C@H](OC(=O)Nc1ccc(-c3ccccc3)cc1)[C@H]2O)[C@@H](OC(C)=O)[C@H](C)Cc1ccccc1` [Compound 5t] gave an MIC (C. parapsilosis MY1010) of over 128 µg/mL, an MIC (Crypt. neoformans MY1051) of over 128 µg/mL and an MIC (Aspergillus flavus MF383) of 0.5 µg/mL (≈ 0.681 µM). The MIC (C. tropicalis MY1012) was 0.5 µg/mL (≈ 0.681 µM) and the MIC (Candida albicans MY1055) was 8 µg/mL (≈ 10.9 µM).
`CC[C@H](C)C[C@H](C)CCC(=O)O[C@@H]1[C@@H](O)[C@@]2(CCC(C)C[C@H](C)Cc3ccccc3)O[C@H](C(=O)O)[C@@](O)(C(=O)O)[C@]1(C(=O)O)O2` (stereo partly drawn) [Compound 25b, (1S,3S,4S, 5R,6R,7R)-1-[3,5(R)-dimethyl-6-phenyl]hexyl-4,6,7trihydroxy-6-O-(4(S),6(S)-dimethyl-2-octanoyl)-2,8-dioxabicyclo[3.2.1]octane-3,4,5-tricarboxylic acid] gave an MIC (C. parapsilosis MY1010) of over 128 µg/mL, an MIC (Crypt. neoformans MY1051) of 2 µg/mL (≈ 3.14 µM) and an MIC (Aspergillus flavus MF383) of 4 µg/mL (≈ 6.28 µM). It also gave an MIC (C. tropicalis MY1012) of 8 µg/mL (≈ 12.6 µM) and an MIC (Candida albicans MY1055) of 8 µg/mL (≈ 12.6 µM).
